Laboratory results taken from the supplement of paper PMC10307832.

Tests used:
Experiment in all cases: relative viability (nuclei count vs DMSO), 5 days (fraction); higher = more cells survive
CUDC-101 + Vorinostat = compound: C#Cc1cccc(Nc2ncnc3cc(OC)c(OCCCCCCC(=O)NO)cc23)c1 [CUDC-101] + O=C(CCCCCCC(=O)Nc1ccccc1)NO [Vorinostat] (partner 1 µM)
In short: (§1)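 Relative viability equals treated-well nuclei counts divided by vehicle-well nuclei counts. Counts came from 4× images of lung cancer cell lines grown in 1536-well plates for 5 days after pin-tool dosing on the day after seeding. Dosing used one drug alone or a fixed anchor-drug dose plus five library-drug doses (not always all listed) in √10 steps, and values are medians of duplicate plates.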

CUDC-101 + Palbociclib = compound: C#Cc1cccc(Nc2ncnc3cc(OC)c(OCCCCCCC(=O)NO)cc23)c1 [CUDC-101] + CC(=O)c1c(C)c2cnc(Nc3ccc(N4CCNCC4)cn3)nc2n(C2CCCC2)c1=O [Palbociclib] (partner 0.5 µM)
In short: as §1

Vandetanib + OSI-027 = compound: COc1cc2/c(=N/c3ccc(Br)cc3F)nc[nH]c2cc1OCC1CCN(C)CC1 [Vandetanib] + COc1cccc2cc(-c3nc([C@H]4CC[C@H](C(=O)O)CC4)n4ncnc(N)c34)[nH]c12 [OSI-027] (partner 0.5 µM)
In short: as §1

NVP-TAE684 + Olaparib = compound: COc1cc(N2CCC(N3CCN(C)CC3)CC2)ccc1Nc1ncc(Cl)c(Nc2ccccc2S(=O)(=O)C(C)C)n1 [NVP-TAE684] + O=C(c1cc(Cc2n[nH]c(=O)c3ccccc23)ccc1F)N1CCN(C(=O)C2CC2)CC1 [Olaparib] (partner 8 µM)
In short: as §1

| Cell Line | relative viability (CUDC-101 + Vorinostat; first compound 0.01 µM) | relative viability (CUDC-101 + Vorinostat; first compound 0.03162 µM) | relative viability (CUDC-101 + Vorinostat; first compound 0.1 µM) | relative viability (CUDC-101 + Vorinostat; first compound 0.3162 µM) | relative viability (CUDC-101 + Vorinostat; first compound 1 µM) | relative viability (CUDC-101 + Palbociclib; first compound 0.01 µM) | relative viability (CUDC-101 + Palbociclib; first compound 0.03162 µM) | relative viability (CUDC-101 + Palbociclib; first compound 0.1 µM) | relative viability (CUDC-101 + Palbociclib; first compound 0.3162 µM) | relative viability (CUDC-101 + Palbociclib; first compound 1 µM) | relative viability (Vandetanib + OSI-027; first compound 0.02 µM) | relative viability (Vandetanib + OSI-027; first compound 0.06325 µM) | relative viability (Vandetanib + OSI-027; first compound 0.2 µM) | relative viability (Vandetanib + OSI-027; first compound 0.6325 µM) | relative viability (Vandetanib + OSI-027; first compound 2 µM) | relative viability (NVP-TAE684 + Olaparib; first compound 0.2 µM) | relative viability (NVP-TAE684 + Olaparib; first compound 0.6325 µM) | relative viability (NVP-TAE684 + Olaparib; first compound 2 µM) |
| --- | --- | --- | --- | --- | --- | --- | --- | --- | --- | --- | --- | --- | --- | --- | --- | --- | --- | --- |
| NCI-H2405 | 1.1 | 1.04 | 0.968 | 0.953 | 0.568 | 0.523 | 0.513 | 0.585 | 0.584 | 0.506 | 0.621 | 0.422 | 0.72 | 0.671 | 0.482 | 0.923 | 0.825 | 0.481 |
| NCI-H2087 | 0.928 | 0.886 | 0.684 | 0.528 | 0.38 | 0.284 | 0.21 | 0.238 | 0.264 | 0.168 | 0.524 | 0.526 | 0.581 | 0.614 | 0.513 | 0.646 | 0.598 | 0.503 |
| NCI-H2023 | 0.781 | 0.654 | 0.716 | 0.703 | 0.435 | 0.42 | 0.342 | 0.457 | 0.416 | 0.361 | 0.375 | 0.34 | 0.429 | 0.37 | 0.41 | 0.587 | 0.518 | 0.138 |
| NCI-H3122 | 1.04 | 0.912 | 0.895 | 1.01 | 0.685 | 0.206 | 0.214 | 0.187 | 0.177 | 0.175 | 0.97 | 0.924 | 0.937 | 0.931 | 1.06 | 0.342 | 0.225 | 0.111 |
| ChaGo-K-1 | 0.756 | 0.727 | 0.79 | 0.698 | 0.578 | 0.918 | 0.908 | 0.94 | 0.909 | 0.738 | 0.532 | 0.54 | 0.515 | 0.602 | 0.591 | 0.422 | 0.418 | 0.345 |
| NCI-H2347 | 0.741 | 0.583 | 0.631 | 0.415 | 0.46 | 0.469 | 0.431 | 0.429 | 0.435 | 0.418 | 0.518 |  | 0.386 | 0.492 | 0.361 | 0.573 | 0.57 | 0.49 |
| NCI-H460 | 0.679 | 0.73 | 0.695 | 0.597 | 0.409 | 0.277 | 0.223 | 0.135 | 0.149 | 0.0952 | 0.604 | 0.611 | 0.615 | 0.583 | 0.586 | 0.537 | 0.484 | 0.633 |
| HCC-827 | 0.929 | 0.835 | 0.168 | 0.156 | 0.14 | 0.35 | 0.283 | 0.155 | 0.169 | 0.142 | 0.895 | 0.752 | 0.707 | 0.164 | 0.149 | 0.697 | 0.585 | 0.668 |
| HOP-62 | 0.716 | 0.57 | 0.665 | 0.524 | 0.261 | 0.448 | 0.38 | 0.478 | 0.421 | 0.425 | 0.789 | 0.739 | 0.815 | 0.903 | 0.846 | 0.291 | 0.33 | 0.811 |
| NCI-H1792 |  |  |  |  |  | 0.675 | 0.649 | 0.7 | 0.675 | 0.647 | 0.761 | 0.715 | 0.784 | 0.751 | 0.63 | 0.52 | 0.37 | 0.248 |
| HCC-15 | 0.828 | 0.802 | 0.77 | 0.716 | 0.448 | 0.737 | 0.74 | 0.793 | 0.818 | 0.648 | 0.75 | 0.638 | 0.668 | 0.682 | 0.537 | 0.745 | 0.748 | 0.577 |
| NCI-H1755 | 0.759 | 0.741 | 0.73 | 0.67 | 0.637 | 0.431 | 0.472 | 0.507 | 0.469 | 0.435 | 0.688 | 0.649 | 0.757 | 0.689 | 0.672 | 0.926 | 0.965 |  |
| NCI-H23 | 0.71 | 0.731 | 0.683 | 0.661 | 0.335 | 0.463 | 0.562 | 0.563 | 0.535 | 0.446 | 0.513 | 0.559 | 0.573 | 0.613 | 0.746 | 0.312 | 0.211 | 0.187 |
| BEN | 0.656 | 0.557 | 0.573 | 0.538 | 0.386 | 0.432 | 0.477 | 0.522 | 0.513 | 0.479 | 0.247 | 0.302 | 0.292 | 0.285 | 0.282 | 1.04 | 0.971 | 0.894 |
| NCI-H1651 | 0.539 | 0.545 | 0.578 | 0.51 | 0.497 | 0.548 | 0.543 | 0.497 | 0.529 | 0.493 | 0.595 | 0.703 | 0.667 | 0.616 | 0.628 | 0.181 | 0.186 | 0.173 |
| NCI-H2126 | 0.862 | 0.777 | 0.713 | 0.704 | 0.452 | 0.355 | 0.346 | 0.337 | 0.364 | 0.352 | 0.694 | 0.661 | 0.64 | 0.627 | 0.648 | 0.88 |  | 0.712 |
| EKVX | 0.658 | 0.658 | 0.623 | 0.617 | 0.363 | 0.374 | 0.335 | 0.336 | 0.405 | 0.323 | 0.741 | 0.693 | 0.723 | 0.67 | 0.563 | 0.868 | 0.678 | 0.464 |
